Data as given in BigSolDB 2.1.

CCc1cc(C(N)=S)ccn1
solubility (mole fraction)
Details | 278.15 K | 283.15 K | 288.15 K | 293.15 K | 298.15 K | 303.15 K | 308.15 K | 313.15 K | 318.15 K | 323.15 K
in 2-ethoxyethanol | 0.0252 | 0.0261 | 0.0289 | 0.0336 | 0.0383 | 0.0449 | 0.0516 | 0.0596 | 0.0677 | 0.0751
in 2-methoxyethanol | 0.0343 | 0.0387 | 0.0441 | 0.0494 | 0.055 | 0.0617 | 0.0676 | 0.075 | 0.0848 | 0.094
in DMAc | 0.169 | 0.173 | 0.179 | 0.189 | 0.199 | 0.209 | 0.221 | 0.233 | 0.245 | 0.257
in DMF | 0.104 | 0.112 | 0.123 | 0.135 | 0.148 | 0.157 | 0.167 | 0.185 | 0.199 | 0.219
in DMSO | – | – | – | 0.187 | 0.205 | 0.216 | 0.228 | 0.243 | 0.259 | 0.271
in NMP | 0.182 | 0.191 | 0.199 | 0.212 | 0.22 | 0.23 | 0.242 | 0.253 | 0.265 | 0.277
in acetone | 0.00589 | 0.00695 | 0.00799 | 0.00925 | 0.0109 | 0.0124 | 0.0148 | 0.0172 | 0.0194 | 0.0226
in ethanol | 0.00464 | 0.00566 | 0.00695 | 0.00835 | 0.00993 | 0.012 | 0.0134 | 0.0161 | 0.0192 | 0.0228
in ethyl acetate | 0.00874 | 0.0102 | 0.0122 | 0.0144 | 0.0171 | 0.0199 | 0.0231 | 0.0265 | 0.0312 | 0.0381
in isopropanol | 0.00292 | 0.00334 | 0.0042 | 0.00507 | 0.00642 | 0.00805 | 0.0096 | 0.0115 | 0.0143 | 0.018
in methanol | 0.00534 | 0.0063 | 0.0074 | 0.00919 | 0.0112 | 0.013 | 0.0159 | 0.018 | 0.0215 | 0.0256
in n-propanol | 0.00381 | 0.00464 | 0.00562 | 0.00719 | 0.00862 | 0.0103 | 0.0128 | 0.0159 | 0.0192 | 0.0231
